In patent US9695155B2, “Herbicidal substituted pyrimidinyloxy benzene compounds” (E. I. DU PONT DE NEMOURS AND COMPANY, priority 2013, dated 2017):

Key:
windgrass = test: Test D postemergence; type: in vivo, Apera spica-venti
Description: (§1) Seeds of plant species selected from bluegrass (annual bluegrass, Poa annua), blackgrass (Alopecurus myosuroides), canarygrass (littleseed canarygrass, Phalaris minor), chickweed (common chickweed, Stellaria media), galium (catchweed bedstraw, Galium aparine), bromegrass, downy (downy bromegrass, Bromus tectorum), field poppy (Papaver rhoeas), field violet (Viola arvensis), green foxtail (Setaria viridis), deadnettle (henbit deadnettle, Lamium amplexicaule), Italian ryegrass (Lolium multiflorum), kochia (Kochia scoparia), lambsquarters (Chenopodium album), oilseed rape (Brassica napus), pigweed (Amaranthus retroflexus), chamomile (scentless chamomile, Matricaria inodora), Russian thistle (Salsola kali), speedwell (bird's-eye speedwell, Veronica persica), spring barley (Hordeum vulgare), spring wheat (Triticum aestivum), wild buckwheat (Polygonum convolvulus), wild mustard (Sinapis arvensis), wild oat (Avena fatua), wild radish (Raphanus raphanistrum), windgrass (Apera spica-venti), winter barley (Hordeum vulgare), and winter wheat (Triticum aestivum) were planted into a silt loam soil and treated preemergence with test chemicals formulated in a non-phytotoxic solvent mixture which included a surfactant.
(§2) At the same time, these species were planted in pots containing Redi-Earth® planting medium (Scotts Company, 14111 Scottslawn Road, Marysville, Ohio 43041) comprising spaghnum peat moss, vermiculite, wetting agent and starter nutrients and treated with postemergence applications of the test chemicals formulated in the same manner. Plants ranged in height from 2 to 18 cm (1- to 4-leaf stage). Treated plants and controls were maintained in a controlled growth environment for 7 to 21 days after which time all species were compared to controls and visually evaluated. Plant response ratings, summarized in Table D, are based on a scale of 0 to 100 where 0 is no effect and 100 is complete control. A dash (-) response means no test result.

green foxtail [1] = test: Test D preemergence; type: in vivo, Setaria viridis
Description: as §1, §2

oilseed rape = test: Test D preemergence; type: in vivo, Brassica napus
Description: as §1, §2

green foxtail [2] = test: Test D postemergence; type: in vivo, Setaria viridis
Description: as §1, §2

bromegrass, downy = test: Test D postemergence; type: in vivo, Bromus tectorum; settings: Postemergence, scale 0 to 100 (0 no effect, 100 complete control)
Description: as §1, §2

wild radish = test: Test D postemergence; type: in vivo, Raphanus raphanistrum
Description: as §1, §2

wild mustard = test: Test D postemergence; type: in vivo, Sinapis arvensis
Description: as §1, §2

chamomile = test: Test D preemergence; type: in vivo, Matricaria inodora
Description: as §1, §2

lambsquarters = test: Test D postemergence; type: in vivo, Chenopodium album
Description: as §1, §2

pigweed = test: Test D postemergence; type: in vivo, Amaranthus retroflexus
Description: as §1, §2

[3] = 62 g ai/ha, scale 0 to 100 (0 no effect, 100 complete control)
[4] = 125 g ai/ha, scale 0 to 100 (0 no effect, 100 complete control)
[5] = 250 g ai/ha, scale 0 to 100 (0 no effect, 100 complete control)
[6] = 31 g ai/ha, scale 0 (no effect) to 100 (complete control)

N#Cc1cccc(Oc2ncc(Cl)cn2)c1-n1cc(-n2ccc(C(F)(F)F)n2)cn1 [Compound 284]
Plant response rating, Windgrass (windgrass; 31 g ai/ha, scale 0-100): 20 | Plant response rating, Windgrass (windgrass; [3]): 20 | Plant response rating, Windgrass (windgrass; [4]): 30 | Plant response rating, Windgrass (windgrass; [5]): 30 | Plant response rating, Foxtail, Green (green foxtail [1]; [6]): 10 | Plant response rating, Foxtail, Green (green foxtail [1]; 62 g ai/ha, scale 0-100): 5 | Plant response rating, Foxtail, Green (green foxtail [1]; 125 g ai/ha, scale 0-100): 10 | Plant response rating, Foxtail, Green (green foxtail [1]; 250 g ai/ha, scale 0-100): 80 | Plant response rating, Oilseed Rape (oilseed rape; [6]): 0 | Plant response rating, Oilseed Rape (oilseed rape; 62 g ai/ha, scale 0-100): 0 | Plant response rating, Oilseed Rape (oilseed rape; 125 g ai/ha, scale 0-100): 10 | Plant response rating, Oilseed Rape (oilseed rape; 250 g ai/ha, scale 0-100): 10 | Plant response rating, Foxtail, Green (green foxtail [2]; 31 g ai/ha, scale 0-100): 10 | Plant response rating, Foxtail, Green (green foxtail [2]; [3]): 10 | Plant response rating, Foxtail, Green (green foxtail [2]; [4]): 50 | Plant response rating, Foxtail, Green (green foxtail [2]; [5]): 85 | Plant response rating, Bromegrass, Downy (bromegrass, downy; 62 g ai/ha): 40 | Plant response rating, Bromegrass, Downy (bromegrass, downy; 31 g ai/ha): 30 | Plant response rating, Bromegrass, Downy (bromegrass, downy; 125 g ai/ha): 45 | Plant response rating, Bromegrass, Downy (bromegrass, downy; 250 g ai/ha): 45 | Plant response rating, Radish, Wild (wild radish; 31 g ai/ha, scale 0-100): 75 | Plant response rating, Radish, Wild (wild radish; [3]): 100 | Plant response rating, Radish, Wild (wild radish; [4]): 100 | Plant response rating, Radish, Wild (wild radish; [5]): 100 | Plant response rating, Mustard, Wild (wild mustard; 31 g ai/ha, scale 0-100): 100 | Plant response rating, Mustard, Wild (wild mustard; [3]): 100 | Plant response rating, Mustard, Wild (wild mustard; [4]): 100 | Plant response rating, Mustard, Wild (wild mustard; [5]): 100 | Plant response rating, Chamomile (chamomile; [6]): 100 | Plant response rating, Chamomile (chamomile; 62 g ai/ha, scale 0-100): 100 | Plant response rating, Chamomile (chamomile; 125 g ai/ha, scale 0-100): 100 | Plant response rating, Chamomile (chamomile; 250 g ai/ha, scale 0-100): 100 | Plant response rating, Lambsquarters (lambsquarters; 31 g ai/ha, scale 0-100): 85 | Plant response rating, Lambsquarters (lambsquarters; [3]): 98 | Plant response rating, Lambsquarters (lambsquarters; [4]): 100 | Plant response rating, Lambsquarters (lambsquarters; [5]): 100 | Plant response rating, Pigweed (pigweed; 31 g ai/ha, scale 0-100): 100 | Plant response rating, Pigweed (pigweed; [3]): 100 | Plant response rating, Pigweed (pigweed; [4]): 100 | Plant response rating, Pigweed (pigweed; [5]): 100

FC(F)(F)COc1cnn(-c2ccccc2Oc2ncc(Cl)cn2)c1 [Compound 138, 5-chloro-2-[2-[4-(2,2,2-trifluoroethoxy)-1H-pyrazol-1-yl]phenoxy]pyrimidine]
pest or weed control at 16 g/ha (windgrass; Apera spica-venti, post-emergence, 16 g ai/ha, scale 0-100, read-out: Plant response rating, Windgrass): 0% | pest or weed control at 31 g/ha (windgrass; Apera spica-venti, post-emergence, 31 g ai/ha, scale 0 to 100 (0 no effect, 100 complete control), read-out: Plant response rating, Windgrass): 0% | pest or weed control at 62 g/ha (windgrass; Apera spica-venti, post-emergence, 62 g ai/ha, scale 0 to 100 (0 no effect, 100 complete control), read-out: Plant response rating, Windgrass): 15% | pest or weed control at 125 g/ha (windgrass; Apera spica-venti, post-emergence, 125 g ai/ha, scale 0 to 100 (0 no effect, 100 complete control), read-out: Plant response rating, Windgrass): 20% | pest or weed control at 16 g/ha (green foxtail [1]; Setaria viridis, pre-emergence, 16 g ai/ha, scale 0 (no effect) to 100 (complete control), read-out: Plant response rating, Foxtail, Green): 0% | pest or weed control at 31 g/ha (green foxtail [1]; Setaria viridis, pre-emergence, 31 g ai/ha, scale 0-100, read-out: Plant response rating, Foxtail, Green): 0% | pest or weed control at 62 g/ha (green foxtail [1]; Setaria viridis, pre-emergence, 62 g ai/ha, scale 0-100, read-out: Plant response rating, Foxtail, Green): 20% | pest or weed control at 125 g/ha (green foxtail [1]; Setaria viridis, pre-emergence, 125 g ai/ha, scale 0-100, read-out: Plant response rating, Foxtail, Green): 100% | plant injury at 16 g/ha (oilseed rape; Brassica napus, pre-emergence, 16 g ai/ha, scale 0 (no effect) to 100 (complete control), read-out: Plant response rating, Oilseed Rape): 35% | plant injury at 31 g/ha (oilseed rape; Brassica napus, pre-emergence, 31 g ai/ha, scale 0-100, read-out: Plant response rating, Oilseed Rape): 30% | plant injury at 62 g/ha (oilseed rape; Brassica napus, pre-emergence, 62 g ai/ha, scale 0-100, read-out: Plant response rating, Oilseed Rape): 50% | plant injury at 125 g/ha (oilseed rape; Brassica napus, pre-emergence, 125 g ai/ha, scale 0-100, read-out: Plant response rating, Oilseed Rape): 65% | pest or weed control at 16 g/ha (green foxtail [2]; Setaria viridis, post-emergence, 16 g ai/ha, scale 0-100, read-out: Plant response rating, Foxtail, Green): 20% | pest or weed control at 31 g/ha (green foxtail [2]; Setaria viridis, post-emergence, 31 g ai/ha, scale 0 to 100 (0 no effect, 100 complete control), read-out: Plant response rating, Foxtail, Green): 20% | pest or weed control at 62 g/ha (green foxtail [2]; Setaria viridis, post-emergence, 62 g ai/ha, scale 0 to 100 (0 no effect, 100 complete control), read-out: Plant response rating, Foxtail, Green): 20% | pest or weed control at 125 g/ha (green foxtail [2]; Setaria viridis, post-emergence, 125 g ai/ha, scale 0 to 100 (0 no effect, 100 complete control), read-out: Plant response rating, Foxtail, Green): 30% | pest or weed control at 16 g/ha (bromegrass, downy; Bromus tectorum, post-emergence, 16 g ai/ha, read-out: Plant response rating, Bromegrass, Downy): 0% | pest or weed control at 31 g/ha (bromegrass, downy; Bromus tectorum, post-emergence, 31 g ai/ha, read-out: Plant response rating, Bromegrass, Downy): 0% | pest or weed control at 62 g/ha (bromegrass, downy; Bromus tectorum, post-emergence, 62 g ai/ha, read-out: Plant response rating, Bromegrass, Downy): 5% | pest or weed control at 125 g/ha (bromegrass, downy; Bromus tectorum, post-emergence, 125 g ai/ha, read-out: Plant response rating, Bromegrass, Downy): 5% | pest or weed control at 16 g/ha (wild radish; Raphanus raphanistrum, post-emergence, 16 g ai/ha, scale 0-100, read-out: Plant response rating, Radish, Wild): 60% | pest or weed control at 31 g/ha (wild radish; Raphanus raphanistrum, post-emergence, 31 g ai/ha, scale 0 to 100 (0 no effect, 100 complete control), read-out: Plant response rating, Radish, Wild): 65% | pest or weed control at 62 g/ha (wild radish; Raphanus raphanistrum, post-emergence, 62 g ai/ha, scale 0 to 100 (0 no effect, 100 complete control), read-out: Plant response rating, Radish, Wild): 80% | pest or weed control at 125 g/ha (wild radish; Raphanus raphanistrum, post-emergence, 125 g ai/ha, scale 0 to 100 (0 no effect, 100 complete control), read-out: Plant response rating, Radish, Wild): 90% | pest or weed control at 16 g/ha (wild mustard; Brassica, post-emergence, 16 g ai/ha, scale 0-100, read-out: Plant response rating, Mustard, Wild): 65% | pest or weed control at 31 g/ha (wild mustard; Brassica, post-emergence, 31 g ai/ha, scale 0 to 100 (0 no effect, 100 complete control), read-out: Plant response rating, Mustard, Wild): 75% | pest or weed control at 62 g/ha (wild mustard; Brassica, post-emergence, 62 g ai/ha, scale 0 to 100 (0 no effect, 100 complete control), read-out: Plant response rating, Mustard, Wild): 75% | pest or weed control at 125 g/ha (wild mustard; Brassica, post-emergence, 125 g ai/ha, scale 0 to 100 (0 no effect, 100 complete control), read-out: Plant response rating, Mustard, Wild): 75% | pest or weed control at 16 g/ha (lambsquarters; Chenopodium album, post-emergence, 16 g ai/ha, scale 0-100, read-out: Plant response rating, Lambsquarters): 55% | pest or weed control at 31 g/ha (lambsquarters; Chenopodium album, post-emergence, 31 g ai/ha, scale 0 to 100 (0 no effect, 100 complete control), read-out: Plant response rating, Lambsquarters): 60% | pest or weed control at 62 g/ha (lambsquarters; Chenopodium album, post-emergence, 62 g ai/ha, scale 0 to 100 (0 no effect, 100 complete control), read-out: Plant response rating, Lambsquarters): 60% | pest or weed control at 125 g/ha (lambsquarters; Chenopodium album, post-emergence, 125 g ai/ha, scale 0 to 100 (0 no effect, 100 complete control), read-out: Plant response rating, Lambsquarters): 60% | pest or weed control at 16 g/ha (pigweed; Amaranthus retroflexus, post-emergence, 16 g ai/ha, scale 0-100, read-out: Plant response rating, Pigweed): 65% | pest or weed control at 31 g/ha (pigweed; Amaranthus retroflexus, post-emergence, 31 g ai/ha, scale 0 to 100 (0 no effect, 100 complete control), read-out: Plant response rating, Pigweed): 70% | pest or weed control at 62 g/ha (pigweed; Amaranthus retroflexus, post-emergence, 62 g ai/ha, scale 0 to 100 (0 no effect, 100 complete control), read-out: Plant response rating, Pigweed): 90% | pest or weed control at 125 g/ha (pigweed; Amaranthus retroflexus, post-emergence, 125 g ai/ha, scale 0 to 100 (0 no effect, 100 complete control), read-out: Plant response rating, Pigweed): 90%
